# Results reported in PubChem BioAssay (NCI).
#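 Following 48 hours of exposure in 96-well plates, responses at five concentrations were used to interpolate endpoints linearly. GI50 marks 50% less growth. TGI denotes the concentration required for complete inhibition of growth.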
# Experiments:
# Assay in all cases: inhibition of tumour cell growth, NCI panel, 48 h
# SNB-75 CNS = system: SNB-75 CNS
# T-47D breast = system: T-47D breast
# LOX IMVI melanoma = system: LOX IMVI melanoma
# A498 renal = system: A498 renal
# MOLT-4 leukemia = system: MOLT-4 leukemia
# HOP-62 NSCLC = system: HOP-62 NSCLC
# SF-539 CNS = system: SF-539 CNS
# HS 578T breast = system: HS 578T breast
# SF-295 CNS = system: SF-295 CNS
# SK-MEL-28 melanoma = system: SK-MEL-28 melanoma
# M14 melanoma = system: M14 melanoma
# OVCAR-3 ovarian = system: OVCAR-3 ovarian
# SN12C renal = system: SN12C renal
# NCI/ADR-RES ovarian = system: NCI/ADR-RES ovarian
# RPMI-8226 leukemia = system: RPMI-8226 leukemia
# UACC-62 melanoma = system: UACC-62 melanoma
# NCI-H522 lung = system: NCI-H522 lung
# HL-60(TB) leukemia = system: HL-60(TB) leukemia
# UO-31 renal = system: UO-31 renal
# IGROV1 ovarian = system: IGROV1 ovarian
# HOP-92 NSCLC = system: HOP-92 NSCLC
# SK-MEL-5 melanoma = system: SK-MEL-5 melanoma
# MDA-MB-231 breast = system: MDA-MB-231 breast
# CAKI-1 renal = system: CAKI-1 renal
# OVCAR-4 ovarian = system: OVCAR-4 ovarian
# EKVX NSCLC = system: EKVX NSCLC
# NCI-H460 lung = system: NCI-H460 lung
# BT-549 breast = system: BT-549 breast
# 786-0 renal = system: 786-0 renal
# SR leukemia = system: SR leukemia
# SW-620 colon = system: SW-620 colon
# MALME-3M melanoma = system: MALME-3M melanoma
# CCRF-CEM leukemia = system: CCRF-CEM leukemia
# UACC-257 melanoma = system: UACC-257 melanoma
# PC-3 prostate = system: PC-3 prostate
# MCF7 breast = system: MCF7 breast
# KM12 colon = system: KM12 colon
# HT29 colon = system: HT29 colon
# HCT-116 colon = system: HCT-116 colon
# SK-OV-3 ovarian = system: SK-OV-3 ovarian
# SF-268 CNS = system: SF-268 CNS
# COLO 205 colon = system: COLO 205 colon
# MDA-MB-435 = system: MDA-MB-435
# A549 NSCLC = system: A549 NSCLC
# SNB-19 CNS = system: SNB-19 CNS
# NCI-H226 lung = system: NCI-H226 lung
# K-562 leukemia = system: K-562 leukemia
# U251 CNS = system: U251 CNS
# OVCAR-5 ovarian = system: OVCAR-5 ovarian
# TK-10 renal = system: TK-10 renal
# ACHN renal = system: ACHN renal
# HCC-2998 colon = system: HCC-2998 colon
# NCI-H23 lung = system: NCI-H23 lung
# DU-145 prostate = system: DU-145 prostate
# RXF 393 renal = system: RXF 393 renal
# OVCAR-8 ovarian = system: OVCAR-8 ovarian
# HCT-15 colon = system: HCT-15 colon
# SK-MEL-2 melanoma = system: SK-MEL-2 melanoma
structure (smiles),measurement,setting,value
COc1ccc(/C=C\c2cc(OC)c(OC)c(OC)c2)c(NS(=O)(=O)c2ccc(C(C)(C)C)cc2)c1O,GI50,SNB-75 CNS,0.231 µM
same,TGI,SNB-75 CNS,14.1 µM
same,GI50,T-47D breast,16.8 µM
same,TGI,T-47D breast,52.3 µM
same,GI50,LOX IMVI melanoma,0.667 µM
same,TGI,LOX IMVI melanoma,17.1 µM
same,GI50,A498 renal,0.0241 µM
same,TGI,A498 renal,0.169 µM
same,GI50,MOLT-4 leukemia,0.202 µM
same,TGI,MOLT-4 leukemia,3.94 µM
same,GI50,HOP-62 NSCLC,10.1 µM
same,TGI,HOP-62 NSCLC,70.3 µM
same,GI50,SF-539 CNS,0.159 µM
same,TGI,SF-539 CNS,0.509 µM
same,GI50,HS 578T breast,0.521 µM
same,TGI,HS 578T breast,19.9 µM
same,GI50,SF-295 CNS,1.37 µM
same,TGI,SF-295 CNS,15 µM
same,GI50,SK-MEL-28 melanoma,4.91 µM
same,TGI,SK-MEL-28 melanoma,22.2 µM
same,GI50,M14 melanoma,0.191 µM
same,TGI,M14 melanoma,13.5 µM
same,GI50,OVCAR-3 ovarian,0.225 µM
same,TGI,OVCAR-3 ovarian,12 µM
same,GI50,SN12C renal,0.618 µM
same,TGI,SN12C renal,21.4 µM
same,GI50,NCI/ADR-RES ovarian,0.309 µM
same,TGI,NCI/ADR-RES ovarian,19.6 µM
same,GI50,RPMI-8226 leukemia,0.508 µM
same,TGI,RPMI-8226 leukemia,25.6 µM
same,GI50,UACC-62 melanoma,0.113 µM
same,TGI,UACC-62 melanoma,17.5 µM
same,GI50,NCI-H522 lung,0.213 µM
same,TGI,NCI-H522 lung,12.2 µM
same,GI50,HL-60(TB) leukemia,0.039 µM
same,TGI,HL-60(TB) leukemia,2.34 µM
same,GI50,UO-31 renal,0.982 µM
same,TGI,UO-31 renal,21.6 µM
same,GI50,IGROV1 ovarian,0.986 µM
same,TGI,IGROV1 ovarian,35.8 µM
same,GI50,HOP-92 NSCLC,0.189 µM
same,TGI,HOP-92 NSCLC,5.92 µM
same,GI50,SK-MEL-5 melanoma,0.345 µM
same,TGI,SK-MEL-5 melanoma,1.83 µM
same,GI50,MDA-MB-231 breast,0.358 µM
same,TGI,MDA-MB-231 breast,16.9 µM
same,GI50,CAKI-1 renal,0.0674 µM
same,TGI,CAKI-1 renal,18.7 µM
same,GI50,OVCAR-4 ovarian,0.188 µM
same,TGI,OVCAR-4 ovarian,32 µM
same,GI50,EKVX NSCLC,0.706 µM
same,TGI,EKVX NSCLC,26.3 µM
same,GI50,NCI-H460 lung,0.375 µM
same,TGI,NCI-H460 lung,11 µM
same,GI50,BT-549 breast,0.467 µM
same,TGI,BT-549 breast,5.22 µM
same,GI50,786-0 renal,0.49 µM
same,TGI,786-0 renal,14.6 µM
same,GI50,SR leukemia,0.0453 µM
same,TGI,SR leukemia,> 100 µM
same,GI50,SW-620 colon,0.329 µM
same,TGI,SW-620 colon,23.5 µM
same,GI50,MALME-3M melanoma,12.5 µM
same,TGI,MALME-3M melanoma,30.4 µM
same,GI50,CCRF-CEM leukemia,0.468 µM
same,TGI,CCRF-CEM leukemia,35.8 µM
same,GI50,UACC-257 melanoma,13.2 µM
same,TGI,UACC-257 melanoma,32.1 µM
same,GI50,PC-3 prostate,0.369 µM
same,TGI,PC-3 prostate,17 µM
same,GI50,MCF7 breast,0.133 µM
same,TGI,MCF7 breast,15.7 µM
same,GI50,KM12 colon,0.58 µM
same,TGI,KM12 colon,15.2 µM
same,GI50,HT29 colon,3.51 µM
same,TGI,HT29 colon,18.6 µM
same,GI50,HCT-116 colon,0.365 µM
same,TGI,HCT-116 colon,13.6 µM
same,GI50,SK-OV-3 ovarian,1.42 µM
same,TGI,SK-OV-3 ovarian,45.9 µM
same,GI50,SF-268 CNS,1.71 µM
same,TGI,SF-268 CNS,41.2 µM
same,GI50,COLO 205 colon,3.32 µM
same,TGI,COLO 205 colon,12.5 µM
same,GI50,MDA-MB-435,0.0427 µM
same,TGI,MDA-MB-435,0.735 µM
same,GI50,A549 NSCLC,0.626 µM
same,TGI,A549 NSCLC,33 µM
same,GI50,SNB-19 CNS,0.56 µM
same,TGI,SNB-19 CNS,26.6 µM
same,GI50,NCI-H226 lung,0.546 µM
same,TGI,NCI-H226 lung,13.5 µM
same,GI50,K-562 leukemia,0.0714 µM
same,TGI,K-562 leukemia,> 100 µM
same,GI50,U251 CNS,0.597 µM
same,TGI,U251 CNS,21.8 µM
same,GI50,OVCAR-5 ovarian,0.626 µM
same,TGI,OVCAR-5 ovarian,22.3 µM
same,GI50,TK-10 renal,1.3 µM
same,TGI,TK-10 renal,37.1 µM
same,GI50,ACHN renal,0.452 µM
same,TGI,ACHN renal,23.5 µM
same,GI50,HCC-2998 colon,1.5 µM
same,TGI,HCC-2998 colon,15.3 µM
same,GI50,NCI-H23 lung,0.497 µM
same,TGI,NCI-H23 lung,17.5 µM
same,GI50,DU-145 prostate,0.395 µM
same,TGI,DU-145 prostate,12.5 µM
same,GI50,RXF 393 renal,0.0379 µM
same,TGI,RXF 393 renal,16 µM
same,GI50,OVCAR-8 ovarian,0.44 µM
same,TGI,OVCAR-8 ovarian,> 100 µM
same,GI50,HCT-15 colon,0.234 µM
same,TGI,HCT-15 colon,16.2 µM
same,GI50,SK-MEL-2 melanoma,1.22 µM
same,TGI,SK-MEL-2 melanoma,20.2 µM
